Assay results reported in patent US6495591B1, “Fungal efflux pump inhibitors” (Essential Therapeutics, Inc., priority 1997, dated 2002).
Converted amounts (≈) assume the structure as drawn. Where two headings read alike, the source gives them in different places.

Experiments:
[1] = target: pCDRI (ABC) efflux pump in S. cerevisiae YEM-1 (Candida albicans, UniProt P43071); assay: cell-based; assay type: cell-based, C. albicans
[2] = target: pCDR2 (ABC) efflux pump in S. cerevisiae YEM-37 (Candida albicans, UniProt P78595); assay: cell-based; assay type: cell-based, C. albicans
Sequence of pCDR2 (ABC) efflux pump in S. cerevisiae YEM-37 (P78595 whole entry): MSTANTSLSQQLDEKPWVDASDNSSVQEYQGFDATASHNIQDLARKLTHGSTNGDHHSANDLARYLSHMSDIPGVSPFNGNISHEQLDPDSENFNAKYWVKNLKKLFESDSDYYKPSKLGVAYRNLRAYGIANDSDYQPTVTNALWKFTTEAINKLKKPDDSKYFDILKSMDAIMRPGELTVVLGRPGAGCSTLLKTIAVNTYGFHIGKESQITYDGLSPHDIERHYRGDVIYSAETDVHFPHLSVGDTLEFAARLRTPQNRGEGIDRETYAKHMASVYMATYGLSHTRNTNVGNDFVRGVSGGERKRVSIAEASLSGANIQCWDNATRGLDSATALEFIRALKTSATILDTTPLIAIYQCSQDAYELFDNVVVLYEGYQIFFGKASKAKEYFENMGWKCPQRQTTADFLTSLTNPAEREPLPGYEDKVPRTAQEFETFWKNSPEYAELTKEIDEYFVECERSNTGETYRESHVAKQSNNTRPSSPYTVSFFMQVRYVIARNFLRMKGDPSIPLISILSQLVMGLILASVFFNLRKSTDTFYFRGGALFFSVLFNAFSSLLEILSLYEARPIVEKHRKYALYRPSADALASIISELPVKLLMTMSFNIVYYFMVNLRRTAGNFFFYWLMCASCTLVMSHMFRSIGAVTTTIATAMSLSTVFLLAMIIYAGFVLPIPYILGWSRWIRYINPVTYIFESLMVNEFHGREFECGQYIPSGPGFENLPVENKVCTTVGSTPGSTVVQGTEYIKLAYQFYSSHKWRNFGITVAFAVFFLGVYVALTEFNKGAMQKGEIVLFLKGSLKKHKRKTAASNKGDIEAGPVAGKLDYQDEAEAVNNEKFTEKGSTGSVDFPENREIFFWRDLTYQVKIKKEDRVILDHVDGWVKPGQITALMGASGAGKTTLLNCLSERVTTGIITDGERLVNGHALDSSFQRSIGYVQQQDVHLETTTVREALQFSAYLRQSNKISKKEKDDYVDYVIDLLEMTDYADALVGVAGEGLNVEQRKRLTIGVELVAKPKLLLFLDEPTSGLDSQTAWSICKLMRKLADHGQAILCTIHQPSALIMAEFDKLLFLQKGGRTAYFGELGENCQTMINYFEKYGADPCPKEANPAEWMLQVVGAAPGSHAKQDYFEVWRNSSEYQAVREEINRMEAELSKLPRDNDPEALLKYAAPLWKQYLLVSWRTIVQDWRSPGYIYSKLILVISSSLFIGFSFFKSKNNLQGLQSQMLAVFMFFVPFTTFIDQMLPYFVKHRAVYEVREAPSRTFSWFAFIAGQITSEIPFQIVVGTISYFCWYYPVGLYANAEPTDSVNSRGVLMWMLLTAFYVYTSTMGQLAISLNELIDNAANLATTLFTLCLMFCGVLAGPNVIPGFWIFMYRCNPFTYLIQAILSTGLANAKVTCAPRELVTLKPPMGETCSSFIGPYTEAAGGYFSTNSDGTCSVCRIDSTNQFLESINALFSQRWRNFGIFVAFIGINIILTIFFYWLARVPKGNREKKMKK

[3] = target: pCgCDR (ABC) efflux pump in S. cerevisiae YEM-39 (Candida glabrata, UniProt Q6FK23); assay: cell-based; assay type: cell-based, C. glabrata
Sequence of pCgCDR (ABC) efflux pump in S. cerevisiae YEM-39 (Q6FK23 whole entry): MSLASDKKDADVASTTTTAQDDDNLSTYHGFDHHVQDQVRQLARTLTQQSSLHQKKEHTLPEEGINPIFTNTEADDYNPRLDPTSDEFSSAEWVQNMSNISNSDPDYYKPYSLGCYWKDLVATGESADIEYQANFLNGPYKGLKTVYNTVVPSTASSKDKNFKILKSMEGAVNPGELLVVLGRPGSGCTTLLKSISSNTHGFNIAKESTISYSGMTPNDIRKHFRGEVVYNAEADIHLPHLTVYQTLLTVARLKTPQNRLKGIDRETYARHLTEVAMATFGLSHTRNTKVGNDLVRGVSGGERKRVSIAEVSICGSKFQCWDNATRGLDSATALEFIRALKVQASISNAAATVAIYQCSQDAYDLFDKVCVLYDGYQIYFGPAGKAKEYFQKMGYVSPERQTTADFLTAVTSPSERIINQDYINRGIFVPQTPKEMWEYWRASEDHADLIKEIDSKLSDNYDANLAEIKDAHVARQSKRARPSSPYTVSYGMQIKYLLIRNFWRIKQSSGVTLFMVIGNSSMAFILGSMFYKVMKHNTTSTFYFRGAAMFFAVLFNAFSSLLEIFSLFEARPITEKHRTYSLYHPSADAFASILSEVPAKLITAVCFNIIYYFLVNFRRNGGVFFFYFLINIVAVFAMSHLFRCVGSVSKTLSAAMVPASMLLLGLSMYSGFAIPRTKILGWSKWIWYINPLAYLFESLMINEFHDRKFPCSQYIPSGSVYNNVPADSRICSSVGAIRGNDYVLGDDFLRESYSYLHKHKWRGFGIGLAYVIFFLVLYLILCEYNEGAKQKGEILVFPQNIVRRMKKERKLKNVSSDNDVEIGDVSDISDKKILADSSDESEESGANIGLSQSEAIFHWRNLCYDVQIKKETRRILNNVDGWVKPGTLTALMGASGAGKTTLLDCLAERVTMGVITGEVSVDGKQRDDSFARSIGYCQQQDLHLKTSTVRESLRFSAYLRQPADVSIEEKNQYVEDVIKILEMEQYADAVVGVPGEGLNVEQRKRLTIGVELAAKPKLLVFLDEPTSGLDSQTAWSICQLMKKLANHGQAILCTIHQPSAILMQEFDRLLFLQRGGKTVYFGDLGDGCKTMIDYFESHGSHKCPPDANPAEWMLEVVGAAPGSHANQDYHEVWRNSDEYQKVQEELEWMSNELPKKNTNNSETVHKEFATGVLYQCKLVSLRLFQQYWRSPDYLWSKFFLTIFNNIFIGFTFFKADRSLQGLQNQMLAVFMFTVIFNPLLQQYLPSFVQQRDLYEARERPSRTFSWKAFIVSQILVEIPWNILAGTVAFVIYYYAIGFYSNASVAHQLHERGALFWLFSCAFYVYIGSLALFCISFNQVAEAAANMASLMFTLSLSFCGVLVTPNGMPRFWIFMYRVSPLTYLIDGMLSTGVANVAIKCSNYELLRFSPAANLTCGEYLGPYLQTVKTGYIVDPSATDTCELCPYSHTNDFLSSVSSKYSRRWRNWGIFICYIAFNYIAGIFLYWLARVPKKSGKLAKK

[4] = target: pBEN (MF) efflux pump in S. cerevisiae YEM-2 (Candida albicans, UniProt P28873); assay: cell-based; assay type: cell-based, C. albicans
Sequence of pBEN (MF) efflux pump in S. cerevisiae YEM-2 (P28873 whole entry): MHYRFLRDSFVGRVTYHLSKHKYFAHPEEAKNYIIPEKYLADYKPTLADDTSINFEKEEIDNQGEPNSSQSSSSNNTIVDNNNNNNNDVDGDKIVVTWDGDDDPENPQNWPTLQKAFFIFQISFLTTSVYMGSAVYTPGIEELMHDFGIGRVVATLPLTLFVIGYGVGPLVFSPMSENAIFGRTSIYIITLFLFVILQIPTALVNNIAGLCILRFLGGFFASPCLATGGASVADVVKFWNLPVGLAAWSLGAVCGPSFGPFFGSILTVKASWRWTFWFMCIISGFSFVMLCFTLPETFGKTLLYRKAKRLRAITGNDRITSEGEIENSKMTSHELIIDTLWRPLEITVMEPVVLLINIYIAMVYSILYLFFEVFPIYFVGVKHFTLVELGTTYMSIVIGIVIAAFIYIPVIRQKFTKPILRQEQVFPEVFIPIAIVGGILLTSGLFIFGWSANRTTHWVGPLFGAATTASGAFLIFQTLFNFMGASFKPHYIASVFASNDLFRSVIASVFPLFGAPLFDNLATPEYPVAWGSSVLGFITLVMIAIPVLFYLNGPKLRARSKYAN

[5] = target: pFLU (MF) efflux pump in S. cerevisiae YEM-38 (Candida albicans, UniProt G1UB37); assay: cell-based; assay type: cell-based, C. albicans
[6] = test system: pCgBEN (MF) efflux pump in S. cerevisiae YEM-40; assay type: cell-based, C. glabrata; conditions: YEM-40 pCgBEN; fluconazole fixed at FLUhalf 2.8
[7] = test system: YEM 13 C. albicans BEN up; assay: microbe, parasite or virus in culture; assay type: cell-based; conditions: YEM 13, 24 hrs, 80% inhibition; for MIC of compound in the presence of fluconazole (+): 1/8 × MIC of fluconazole
[8] = test system: YEM 15 C. albicans, CDR1CDR2 up; assay: microbe, parasite or virus in culture; assay type: cell-based; conditions: YEM 15, 24 hrs, 80% inhibition; for MIC of compound in the presence of fluconazole (+): 1/8 × MIC of fluconazole
YEM 53 C. krusei = assay: FEPI MIC with/without 1/8 fluconazole MIC at 24 hrs (Table 11); assay type: cell-based; conditions: for MIC of compound in the absence of fluconazole (−): YEM 53, 24 hrs, 80% inhibition
[9] = test system: YEM 17 C. glabrata, CgCDR up; assay type: cell-based; conditions: 24 hrs, 80% inhibition; for MIC of compound in the presence of fluconazole (+): 1/8 × MIC of fluconazole
YEM 51 C. glabrata wt = assay: FEPI MIC with/without 1/8 fluconazole MIC at 24 hrs (Table 11); assay type: cell-based; conditions: for MIC of compound in the absence of fluconazole (−): YEM 51, 24 hrs, 80% inhibition
YEM 30 C. albicans wt = assay: as above; assay type: cell-based; conditions: for MIC of compound in the absence of fluconazole (−): YEM 30, 24 hrs, 80% inhibition
[10] = test system: YEM 24 C. albicans ΔCDR1, ΔCDR2; assay: microbe, parasite or virus in culture; assay type: cell-based; conditions: YEM 24, 24 hrs, 80% inhibition; for MIC of compound in the presence of fluconazole (+): 1/8 × MIC of fluconazole
[11] = test system: YEM 27 C. albicans ΔCDR1ΔCDR2 ΔBENΔFLU1; assay: microbe, parasite or virus in culture; assay type: cell-based; conditions: YEM 27, 24 hrs, 80% inhibition; for MIC of compound in the presence of fluconazole (+): 1/8 × MIC of fluconazole
Aspergillus fumigatus = assay: FEPI MICs in combination with 1/4 the azole's MIC (Table 12); assay type: cell-based; set-up: FEPI MIC (alone): unit not given here; conditions: for FEPI MIC with itraconazole, 60% Inh / FEPI MIC with itraconazole, 80% Inh: itraconazole 0.063 μg/ml (1/4 MIC); for FEPI MIC with itraconazole, 60% Inh / FEPI MIC with ketoconazole, 60% Inh: 60% inhibition; for FEPI MIC with itraconazole, 80% Inh / FEPI MIC with ketoconazole, 80% Inh / FEPI MIC (alone): 80% inhibition; for FEPI MIC with ketoconazole, 60% Inh / FEPI MIC with ketoconazole, 80% Inh: ketoconazole 4 μg/ml (1/4 MIC); for FEPI MIC (alone): no azole, 35° C., CM Broth
Procedure: The combinations were tested against a series of Candida strain with known expression of efflux pumps or with complete deletion of all known pumps and Aspergillus fumigatus. Results are reported as minimum inhibitory concentration (MIC) of […] in the presence or absence of […]. A total of 27 distinct milbemycins were studied.

[12] = test system: C. albicans YEM-15 (CDR1 & CDR2 overexpressor); assay: microbe, parasite or virus in culture; assay type: cell-based; conditions: Candida albicans
[13] = test system: C. glabrata YEM-17 (CgCDR overexpressor); assay: microbe, parasite or virus in culture; assay type: cell-based; conditions: Nakaseomyces glabratus
C. krusei YEM-71 = assay: Broth dilution checkerboard, azoles and terbinafine with milbemycin α9 (Table 8); assay type: cell-based; conditions: Pichia kudriavzevii, YEM71, YEM-71, alone

Sequence of pCDRI (ABC) efflux pump in S. cerevisiae YEM-1 (P43071 whole entry): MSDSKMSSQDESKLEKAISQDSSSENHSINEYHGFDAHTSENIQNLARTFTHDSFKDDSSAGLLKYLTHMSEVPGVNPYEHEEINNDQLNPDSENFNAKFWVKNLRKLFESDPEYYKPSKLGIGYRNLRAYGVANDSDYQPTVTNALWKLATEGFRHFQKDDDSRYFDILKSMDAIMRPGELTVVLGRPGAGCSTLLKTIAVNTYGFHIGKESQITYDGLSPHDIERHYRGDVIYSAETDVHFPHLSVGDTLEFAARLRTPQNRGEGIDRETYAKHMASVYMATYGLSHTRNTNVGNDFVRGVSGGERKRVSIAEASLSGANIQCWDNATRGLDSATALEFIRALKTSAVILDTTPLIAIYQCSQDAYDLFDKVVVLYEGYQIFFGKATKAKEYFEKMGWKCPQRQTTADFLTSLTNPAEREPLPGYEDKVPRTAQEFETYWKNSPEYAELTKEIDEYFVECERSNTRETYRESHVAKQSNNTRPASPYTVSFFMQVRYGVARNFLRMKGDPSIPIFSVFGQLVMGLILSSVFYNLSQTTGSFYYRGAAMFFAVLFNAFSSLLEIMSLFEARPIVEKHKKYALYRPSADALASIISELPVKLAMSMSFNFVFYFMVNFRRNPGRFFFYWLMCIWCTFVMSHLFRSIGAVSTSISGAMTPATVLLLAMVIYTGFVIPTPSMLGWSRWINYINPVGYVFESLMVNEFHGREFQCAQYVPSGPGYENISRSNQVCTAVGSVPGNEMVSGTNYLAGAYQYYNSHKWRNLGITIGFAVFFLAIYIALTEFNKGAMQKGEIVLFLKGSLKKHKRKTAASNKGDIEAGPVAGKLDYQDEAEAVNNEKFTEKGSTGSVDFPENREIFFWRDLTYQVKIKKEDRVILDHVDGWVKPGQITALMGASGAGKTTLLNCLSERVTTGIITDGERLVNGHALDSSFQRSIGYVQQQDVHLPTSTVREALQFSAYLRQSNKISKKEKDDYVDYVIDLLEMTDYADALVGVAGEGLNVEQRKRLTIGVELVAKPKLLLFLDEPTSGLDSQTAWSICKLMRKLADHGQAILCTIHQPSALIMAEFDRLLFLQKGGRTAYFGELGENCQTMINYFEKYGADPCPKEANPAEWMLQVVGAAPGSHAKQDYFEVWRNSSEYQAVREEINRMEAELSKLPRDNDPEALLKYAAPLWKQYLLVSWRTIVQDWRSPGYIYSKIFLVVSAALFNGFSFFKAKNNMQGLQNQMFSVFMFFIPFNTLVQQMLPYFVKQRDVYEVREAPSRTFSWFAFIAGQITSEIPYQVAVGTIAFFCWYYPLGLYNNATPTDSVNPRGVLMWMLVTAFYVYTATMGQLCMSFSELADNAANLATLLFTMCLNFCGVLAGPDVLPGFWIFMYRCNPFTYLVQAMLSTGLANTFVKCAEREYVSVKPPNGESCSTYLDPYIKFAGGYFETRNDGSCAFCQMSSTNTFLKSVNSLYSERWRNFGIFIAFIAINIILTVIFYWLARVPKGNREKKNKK

Structure (SMILES) | MIC of compound in the presence of fluconazole (+) [7] | MIC of compound in the absence of fluconazole (−) [7] | MIC of compound in the presence of fluconazole (+) [8] | MIC of compound in the absence of fluconazole (−) [8] | MIC of compound in the presence of fluconazole (+) (YEM 53 C. krusei) | MIC of compound in the absence of fluconazole (−) (YEM 53 C. krusei) | MIC of compound in the presence of fluconazole (+) [9] | MIC of compound in the absence of fluconazole (−) [9] | MIC of compound in the presence of fluconazole (+) (YEM 51 C. glabrata wt) | MIC of compound in the absence of fluconazole (−) (YEM 51 C. glabrata wt) | MIC of compound in the presence of fluconazole (+) (YEM 30 C. albicans wt) | MIC of compound in the absence of fluconazole (−) (YEM 30 C. albicans wt) | MIC of compound in the presence of fluconazole (+) [10] | MIC of compound in the absence of fluconazole (−) [10] | MIC of compound in the presence of fluconazole (+) [11] | MIC of compound in the absence of fluconazole (−) [11] | FEPI MIC with fluconazole, 60% Inh (Aspergillus fumigatus) | FEPI MIC with fluconazole, 80% Inh (Aspergillus fumigatus) | FEPI MIC with itraconazole, 60% Inh (Aspergillus fumigatus) | FEPI MIC with itraconazole, 80% Inh (Aspergillus fumigatus) | other results
CCC(CC)C(=O)OCC1=C[C@H]2C(=O)O[C@H]3C[C@@H](C/C=C(\C)C[C@@H](C)/C=C/C=C4\CO[C@H]([C@@H]1O)[C@@]42O)O[C@@]1(CC[C@H](C)[C@@H](C)O1)C3 [Compound 21, 4a-O-(2-ethyl)butyryl milbemycin α1] | > 64 µg/mL | > 64 µg/mL | 1 µg/mL | > 64 µg/mL | 8 µg/mL | > 64 µg/mL | 8 µg/mL | > 64 µg/mL | 8 µg/mL | > 64 µg/mL | 0.125 µg/mL | > 64 µg/mL | > 64 µg/mL | > 64 µg/mL | > 64 µg/mL | > 64 µg/mL | 8 | 8 | 1 | 8 | IC50 [1]: 1.56 µM; IC50 [2]: 6.22 µM; IC50 [3]: > 99.6 µM; IC50 [4]: > 99.6 µM; IC50 [5]: > 99.6 µM; FEPIhalf (concentration needed to reduce activity of efflux pump by 50%) [6]: >64; FEPI MIC with ketoconazole, 60% Inh (Aspergillus fumigatus): ≦0.063; FEPI MIC with ketoconazole, 80% Inh (Aspergillus fumigatus): ≦0.063; FEPI MIC (alone) (Aspergillus fumigatus): >64
CC(=O)N1CCN(c2ccc(OCC3COC(Cn4ccnc4)(c4ccc(Cl)cc4Cl)O3)cc2)CC1 (stereo not shown) [Ketoconazole, ketoconazole, reference compound] |  |  |  |  |  |  |  |  |  |  |  |  |  |  |  |  |  |  |  |  | MIC ([12]; read-out: Ketoconazole MIC): 1 µg/mL (≈ 1.88 µM); MIC ([13]; read-out: Ketoconazole MIC): 2 µg/mL (≈ 3.76 µM); MIC (C. krusei YEM-71; read-out: Ketoconazole MIC): 2 µg/mL
CC1=C[C@H]2C(=O)O[C@H]3C[C@@H](C/C=C(\C)C[C@@H](C)/C=C/C=C4\CO[C@H]([C@@H]1O)[C@@]42O)O[C@@]1(CC[C@H](C)[C@@H](C)O1)C3 [Compound 3, Milbemycin α1] | 32 µg/mL | > 64 µg/mL | ≦0.03 | > 64 µg/mL | 0.06 µg/mL | > 64 µg/mL | 4 µg/mL | > 64 µg/mL | 16 µg/mL | > 64 µg/mL | ≦0.03 | > 64 µg/mL | > 64 µg/mL | > 64 µg/mL | 8 µg/mL | 8 µg/mL | 2 | >64 | 8 | 16 | IC50 [1]: < 0.113 µM; IC50 [2]: 0.473 µM; IC50 [3]: 15.1 µM; IC50 [4]: 30.3 µM; FEPIhalf (concentration needed to reduce activity of efflux pump by 50%) [6]: 32; FEPI MIC with ketoconazole, 60% Inh (Aspergillus fumigatus): ≦0.063; FEPI MIC with ketoconazole, 80% Inh (Aspergillus fumigatus): ≦0.063; FEPI MIC (alone) (Aspergillus fumigatus): >64
CCC(C)n1ncn(-c2ccc(N3CCN(c4ccc(OCC5COC(Cn6cncn6)(c6ccc(Cl)cc6Cl)O5)cc4)CC3)cc2)c1=O (stereo not shown) [Itraconazole, itraconazole, reference compound] |  |  |  |  |  |  |  |  |  |  |  |  |  |  |  |  |  |  |  |  | MIC ([12]; read-out: Itraconazole MIC): 0.5 µg/mL (≈ 0.709 µM); MIC ([13]; read-out: Itraconazole MIC): 128 µg/mL (≈ 181 µM); MIC (C. krusei YEM-71; read-out: Itraconazole MIC): 0.5 µg/mL
CC1=C[C@H]2C(=O)O[C@H]3C[C@@H](C/C=C(\C)C[C@@H](C)/C=C/C=C4\CO[C@H]([C@@H]1O)[C@@]42O)O[C@@]1(CC[C@H](C)[C@@H](C(C)C)O1)C3 [Compound 12, Milbemycin D] | > 64 µg/mL | > 64 µg/mL | ≦0.03 | > 64 µg/mL | 8 µg/mL | > 64 µg/mL | 32 µg/mL | > 64 µg/mL | 8 µg/mL | > 64 µg/mL | 4 µg/mL | > 64 µg/mL | > 64 µg/mL | > 64 µg/mL | 64 µg/mL | > 64 µg/mL | 16 | >64 | 8 | >64 | FEPI MIC with ketoconazole, 60% Inh (Aspergillus fumigatus): 0.125; FEPI MIC with ketoconazole, 80% Inh (Aspergillus fumigatus): 1; FEPI MIC (alone) (Aspergillus fumigatus): >64
CC[C@H](C)[C@H]1O[C@]2(CC[C@@H]1C)C[C@@H]1C[C@@H](C/C=C(\C)[C@@H](O[C@H]3C[C@H](OC)[C@@H](O[C@H]4C[C@H](OC)[C@@H](O)[C@H](C)O4)[C@H](C)O3)[C@@H](C)/C=C/C=C3\CO[C@@H]4[C@H](O)C(C)=C[C@@H](C(=O)O1)[C@]34O)O2 [Compound 1, Ivermectin B1a] | > 64 µg/mL | > 64 µg/mL | > 64 µg/mL | > 64 µg/mL | 8 µg/mL | > 64 µg/mL | > 64 µg/mL | > 64 µg/mL | 64 µg/mL | > 64 µg/mL | ≦0.03 | > 64 µg/mL | > 64 µg/mL | > 64 µg/mL | 64 µg/mL | > 64 µg/mL | >64 | >64 | >64 | >64 | FEPI MIC with ketoconazole, 60% Inh (Aspergillus fumigatus): >64; FEPI MIC with ketoconazole, 80% Inh (Aspergillus fumigatus): >64; FEPI MIC (alone) (Aspergillus fumigatus): >64
